Laboratory results published in ChEMBL document CHEMBL1909046, “DrugMatrix in vitro pharmacology data”.

Tests used:
[1] = target: Aldo-keto reductase family 1 member B1 (Rattus norvegicus, UniProt P07943); test: biochemical; type: tissue-based, Lens of camera-type eye;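 further: inhibition of aldose reductase enzyme activity, measured with DL-glyceraldehyde as the substrate; in other assays of this panel Not Active means under 50% inhibition at 10 µM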
[2] = target: Vascular endothelial growth factor receptor 1 (Homo sapiens, UniProt P17948); test: biochemical; type: cell-based, HUVEC; conditions: huvec; further: in other assays of this panel Not Active means under 50% inhibition at 10 µM
Chain of Vascular endothelial growth factor receptor 1 (P17948 whole entry): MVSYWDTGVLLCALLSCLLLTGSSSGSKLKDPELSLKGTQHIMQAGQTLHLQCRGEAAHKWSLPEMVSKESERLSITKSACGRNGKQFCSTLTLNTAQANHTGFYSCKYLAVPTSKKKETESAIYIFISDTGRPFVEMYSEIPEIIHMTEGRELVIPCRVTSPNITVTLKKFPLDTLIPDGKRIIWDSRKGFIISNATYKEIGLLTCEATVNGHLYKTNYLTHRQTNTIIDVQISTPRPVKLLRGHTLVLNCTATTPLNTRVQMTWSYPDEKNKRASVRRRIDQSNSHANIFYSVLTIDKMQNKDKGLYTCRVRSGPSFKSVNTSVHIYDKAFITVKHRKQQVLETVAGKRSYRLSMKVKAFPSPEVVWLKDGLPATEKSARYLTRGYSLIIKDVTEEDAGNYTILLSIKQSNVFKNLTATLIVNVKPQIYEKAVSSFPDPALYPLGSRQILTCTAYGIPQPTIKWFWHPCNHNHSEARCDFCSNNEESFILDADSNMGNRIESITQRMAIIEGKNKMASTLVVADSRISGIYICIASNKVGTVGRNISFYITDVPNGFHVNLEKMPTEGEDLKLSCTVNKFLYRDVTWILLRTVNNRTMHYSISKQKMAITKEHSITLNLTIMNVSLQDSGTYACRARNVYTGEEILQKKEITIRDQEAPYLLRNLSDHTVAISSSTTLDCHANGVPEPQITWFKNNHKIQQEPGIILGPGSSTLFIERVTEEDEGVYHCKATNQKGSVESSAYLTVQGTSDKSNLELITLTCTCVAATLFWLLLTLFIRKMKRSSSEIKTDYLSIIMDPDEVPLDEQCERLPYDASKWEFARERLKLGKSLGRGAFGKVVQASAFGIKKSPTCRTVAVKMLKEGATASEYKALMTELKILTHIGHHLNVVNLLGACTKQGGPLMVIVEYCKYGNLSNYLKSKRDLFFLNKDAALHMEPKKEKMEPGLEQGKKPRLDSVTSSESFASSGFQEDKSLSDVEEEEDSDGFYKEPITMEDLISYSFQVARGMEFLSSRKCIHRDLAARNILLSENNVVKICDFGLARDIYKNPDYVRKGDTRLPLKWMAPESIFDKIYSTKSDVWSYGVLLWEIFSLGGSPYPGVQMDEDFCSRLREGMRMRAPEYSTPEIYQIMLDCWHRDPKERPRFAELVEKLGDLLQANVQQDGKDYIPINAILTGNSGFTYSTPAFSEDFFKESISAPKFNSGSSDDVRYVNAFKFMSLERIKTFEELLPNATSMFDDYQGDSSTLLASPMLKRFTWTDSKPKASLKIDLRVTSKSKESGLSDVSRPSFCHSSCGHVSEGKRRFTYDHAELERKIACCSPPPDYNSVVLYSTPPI

[3] = target: T1, C-X-C chemokine receptor type 2 (Homo sapiens, UniProt P25025); type: cell membranes, Membrane; conditions: cho-k1; further: in other assays of this panel Not Active means under 50% inhibition at 10 µM
T1 sequence (P25025 whole entry): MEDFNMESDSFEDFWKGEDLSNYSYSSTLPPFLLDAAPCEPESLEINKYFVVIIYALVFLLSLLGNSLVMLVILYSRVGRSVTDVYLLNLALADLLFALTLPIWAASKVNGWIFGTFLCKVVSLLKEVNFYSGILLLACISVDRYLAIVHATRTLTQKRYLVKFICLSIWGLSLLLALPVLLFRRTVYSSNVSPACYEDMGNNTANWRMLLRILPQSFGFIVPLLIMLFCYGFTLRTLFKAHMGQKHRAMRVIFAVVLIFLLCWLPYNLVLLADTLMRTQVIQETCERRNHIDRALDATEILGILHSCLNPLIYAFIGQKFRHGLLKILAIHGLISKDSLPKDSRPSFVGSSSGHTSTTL

[4] = DRUGMATRIX: Glutamate, Kainate radioligand binding (ligand: [3H] Kainic acid); type: cell membranes, Rattus norvegicus, Wistar, Brain, Membrane; conditions: Not Active = under 50% inhibition at 10 µM
[5] = target: 5-hydroxytryptamine receptor 1B (Rattus norvegicus, UniProt P28564); type: cell membranes, Wistar, Cerebral cortex, Membrane; further: in other assays of this panel Not Active means under 50% inhibition at 10 µM
Chain of 5-hydroxytryptamine receptor 1B (P28564 whole entry): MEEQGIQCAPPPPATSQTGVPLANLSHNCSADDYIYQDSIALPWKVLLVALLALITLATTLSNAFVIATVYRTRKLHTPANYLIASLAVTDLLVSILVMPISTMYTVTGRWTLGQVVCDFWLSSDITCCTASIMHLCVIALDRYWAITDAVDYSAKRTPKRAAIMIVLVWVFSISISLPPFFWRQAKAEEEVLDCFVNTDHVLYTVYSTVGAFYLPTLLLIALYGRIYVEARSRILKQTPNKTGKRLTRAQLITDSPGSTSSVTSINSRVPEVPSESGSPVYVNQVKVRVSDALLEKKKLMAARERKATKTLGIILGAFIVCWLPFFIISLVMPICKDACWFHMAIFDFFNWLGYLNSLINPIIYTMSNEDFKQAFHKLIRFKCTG

Adenosine receptor A3 = target: T2, Adenosine receptor A3 (Homo sapiens, UniProt P0DMS8); type: cell membranes, CHO-K1, Membrane
T2 sequence (P0DMS8 whole entry): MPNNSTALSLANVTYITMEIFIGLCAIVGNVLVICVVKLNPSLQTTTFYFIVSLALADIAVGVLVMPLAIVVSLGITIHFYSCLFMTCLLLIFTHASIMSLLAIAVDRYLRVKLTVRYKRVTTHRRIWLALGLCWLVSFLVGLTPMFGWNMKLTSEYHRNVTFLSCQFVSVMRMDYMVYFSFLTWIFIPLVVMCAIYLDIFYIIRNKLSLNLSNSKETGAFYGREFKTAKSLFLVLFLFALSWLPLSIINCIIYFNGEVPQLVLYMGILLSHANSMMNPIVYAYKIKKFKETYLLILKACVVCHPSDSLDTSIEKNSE

Row | Compound | IC50 [1] | IC50 [2] | IC50 [3] | IC50 [4] | Ki [4] | IC50 [5] | IC50 (Adenosine receptor A3; cho-k1) | Ki [1] | Ki [2] | Ki [3] | Ki [5] | Ki (Adenosine receptor A3; cho-k1) | IC50 ([1]; read-out: IC50) | IC50 (Adenosine receptor A3; read-out: IC50) | Ki (Adenosine receptor A3; read-out: Ki) | IC50 ([5]; read-out: IC50) | Ki ([5]; read-out: Ki)
1 | CCC(=O)O[C@H]1[C@H](O[C@@H]2[C@@H](C)[C@H](O[C@H]3C[C@@](C)(OC)[C@@H](O)[C@H](C)O3)[C@@H](C)C(=O)O[C@H](CC)[C@@](C)(O)[C@H](O)[C@@H](C)C(=O)[C@H](C)C[C@@]2(C)O)O[C@H](C)C[C@@H]1N(C)C [ERYTHROMYCIN PROPIONATE] | Not Active | Not Active | Not Active | Not Active | Not Active | Not Active | Not Active | – | – | – | – | – | – | – | – | – | –
2 | COBALT(II) ACETYLACETONATE | Not Active | Not Active | Not Active | Not Active | Not Active | Not Active | Not Active | Not Active | Not Active | Not Active | Not Active | Not Active | – | – | – | – | –
3 | N[C@@H](Cc1ccc(F)cc1)C(=O)O | Not Active | Not Active | Not Active | Not Active | Not Active | Not Active | Not Active | – | – | – | – | – | – | – | – | – | –
4 | O=C(O)Cc1ccc(-c2ccccc2)cc1 [FELBINAC] | Not Active | Not Active | Not Active | Not Active | Not Active | Not Active | Not Active | – | – | – | – | – | – | – | – | – | –
5 | NC[C@H]1O[C@H](O[C@H]2[C@H](O)[C@@H](O[C@H]3O[C@H](CO)[C@@H](O)[C@H](N)[C@H]3O)[C@H](N)C[C@@H]2N)[C@H](O)[C@@H](O)[C@@H]1O [KANAMYCIN] | Not Active | Not Active | Not Active | Not Active | Not Active | Not Active | Not Active | – | – | – | – | – | – | – | – | – | –
6 | N=C(N)N/N=C/c1c(Cl)cccc1Cl [GUANABENZ] | Not Active | Not Active | Not Active | Not Active | Not Active | Not Active | Not Active | – | – | – | – | – | – | – | – | – | –
7 | C[C@]12CCC(=O)C=C1CC[C@@H]1[C@@H]2[C@@H](O)C[C@@]2(C)[C@H]1CC[C@]2(O)C(=O)CO [HYDROCORTISONE] | Not Active | Not Active | Not Active | Not Active | Not Active | Not Active | Not Active | – | – | – | – | – | – | – | – | – | –
8 | Nc1nc(N)nc(NC2CC2)n1 [CYROMAZINE] | Not Active | Not Active | Not Active | Not Active | Not Active | Not Active | Not Active | – | – | – | – | – | – | – | – | – | –
9 | OCCO [ETHYLENE GLYCOL] | Not Active | Not Active | Not Active | Not Active | Not Active | Not Active | Not Active | – | – | – | – | – | – | – | – | – | –
10 | CCN[C@@H](C)Cc1cccc(C(F)(F)F)c1 [DEXFENFLURAMINE] | Not Active | Not Active | Not Active | Not Active | Not Active | Not Active | Not Active | – | – | – | – | – | – | – | – | – | –
11 | C[C@]12C/C(=C/O)C(=O)C[C@@H]1CC[C@@H]1[C@@H]2CC[C@@]2(C)[C@H]1CC[C@]2(C)O [OXYMETHOLONE] | Not Active | Not Active | Not Active | Not Active | Not Active | Not Active | Not Active | – | – | – | – | – | – | – | – | – | –
12 | C=C(CC)C(=O)c1ccc(OCC(=O)O)c(Cl)c1Cl [ETHACRYNIC ACID] | – | Not Active | Not Active | Not Active | Not Active | Not Active | Not Active | – | – | – | – | – | 1150 nM | – | – | – | –
13 | CCOC(=O)[C@H](CCc1ccccc1)N[C@@H](C)C(=O)N1Cc2ccccc2C[C@H]1C(=O)O | Not Active | Not Active | Not Active | Not Active | Not Active | Not Active | Not Active | – | – | – | – | – | – | – | – | – | –
14 | CCc1oc2ccccc2c1C(=O)c1cc(Br)c(O)c(Br)c1 [BENZBROMARONE] | Not Active | Not Active | Not Active | Not Active | Not Active | Not Active | – | – | – | – | – | – | – | 5220 nM | 2950 nM | – | –
15 | CC[C@H]1OC(=O)[C@H](C)[C@@H](O[C@H]2C[C@@](C)(OC)[C@@H](O)[C@H](C)O2)[C@H](C)[C@@H](O[C@@H]2O[C@H](C)C[C@H](N(C)C)[C@H]2O)[C@](C)(OC)C[C@@H](C)C(=O)[C@H](C)[C@@H](O)[C@]1(C)O [CLARITHROMYCIN] | Not Active | Not Active | Not Active | Not Active | Not Active | Not Active | Not Active | – | – | – | – | – | – | – | – | – | –
16 | CC(=O)O[C@]1(C(C)=O)CC[C@H]2[C@@H]3C=C(C)C4=CC(=O)CC[C@]4(C)[C@H]3CC[C@@]21C [MEGESTROL ACETATE] | Not Active | Not Active | Not Active | Not Active | Not Active | Not Active | Not Active | – | – | – | – | – | – | – | – | – | –
17 | CC(C)C[C@H]1C(=O)N2CCC[C@H]2[C@]2(O)O[C@](NC(=O)[C@@H]3C=C4c5cccc6[nH]c(Br)c(c56)C[C@H]4N(C)C3)(C(C)C)C(=O)N12 [BROMOCRIPTINE] | Not Active | Not Active | Not Active | Not Active | Not Active | – | Not Active | – | – | – | – | – | – | – | – | 103 nM | 47 nM
18 | CC(=O)O[C@]1(C(C)=O)CC[C@H]2[C@@H]3C=C(Cl)C4=CC(=O)[C@@H]5C[C@@H]5[C@]4(C)[C@H]3CC[C@@]21C [CYPROTERONE ACETATE] | Not Active | Not Active | Not Active | Not Active | Not Active | Not Active | Not Active | – | – | – | – | – | – | – | – | – | –
19 | CC(C)(Oc1ccc(C2CC2(Cl)Cl)cc1)C(=O)O (configuration not stated) [CIPROFIBRATE] | Not Active | Not Active | Not Active | Not Active | Not Active | Not Active | Not Active | – | – | – | – | – | – | – | – | – | –
20 | Cc1cnc(C(=O)NCCc2ccc(S(=O)(=O)NC(=O)NC3CCCCC3)cc2)cn1 [GLIPIZIDE] | Not Active | Not Active | Not Active | Not Active | Not Active | Not Active | Not Active | – | – | – | – | – | – | – | – | – | –
21 | CC(C)(C)c1ccc(S(=O)(=O)/C=C/C#N)cc1 [BAY-11-7085] | Not Active | Not Active | Not Active | Not Active | Not Active | Not Active | Not Active | – | – | – | – | – | – | – | – | – | –
22 | Cc1cccc(Nc2ccccc2C(=O)O)c1C [MEFENAMIC ACID] | Not Active | Not Active | Not Active | Not Active | Not Active | Not Active | Not Active | – | – | – | – | – | – | – | – | – | –
23 | NC[C@@H]1O[C@H](O[C@H]2[C@@H](O)[C@H](O[C@@H]3[C@@H](O)[C@H](N)C[C@H](N)[C@H]3O[C@H]3O[C@H](CN)[C@@H](O)[C@H](O)[C@H]3N)O[C@@H]2CO)[C@H](N)[C@@H](O)[C@@H]1O [FRAMYCETIN] | Not Active | Not Active | Not Active | Not Active | Not Active | Not Active | Not Active | – | – | – | – | – | – | – | – | – | –
24 | O=C(O)c1cccnc1 [NIACIN] | Not Active | Not Active | Not Active | Not Active | Not Active | Not Active | Not Active | – | – | – | – | – | – | – | – | – | –
25 | CC[C@]1(O)CC[C@H]2[C@@H]3CCC4=CCCC[C@@H]4[C@H]3CC[C@@]21C | Not Active | Not Active | Not Active | Not Active | Not Active | Not Active | Not Active | – | – | – | – | – | – | – | – | – | –
26 | COc1cc(CNC(=O)CCCC/C=C/C(C)C)ccc1O [CAPSAICIN] | Not Active | Not Active | Not Active | Not Active | Not Active | Not Active | Not Active | – | – | – | – | – | – | – | – | – | –
27 | CN(C(=O)CCCOc1ccc2[nH]c(=O)ccc2c1)C1CCCCC1 [CILOSTAMIDE] | Not Active | Not Active | Not Active | Not Active | Not Active | Not Active | Not Active | – | – | – | – | – | – | – | – | – | –
28 | CC(=O)OCC(CCn1cnc2cnc(N)nc21)COC(C)=O [FAMCICLOVIR] | Not Active | Not Active | Not Active | Not Active | Not Active | Not Active | Not Active | – | – | – | – | – | – | – | – | – | –
29 | OCCN1CCN(CCCN2c3ccccc3Sc3ccc(Cl)cc32)CC1 [PERPHENAZINE] | Not Active | Not Active | Not Active | Not Active | Not Active | Not Active | Not Active | – | – | – | – | – | – | – | – | – | –
30 | COC(=O)c1ccccc1O [METHYL SALICYLATE] | Not Active | Not Active | Not Active | Not Active | Not Active | Not Active | Not Active | – | – | – | – | – | – | – | – | – | –
